From patent EP0146443A1, “(-)-1-(2-Fluorophenyl)-2-tertiobutylamino-1-ethanol and therapeutical use” (LABORATOIRE L. LAFON Société anonyme dite:, priority 1983, dated 1985)

Experiments:
Type in all cases: in vivo
[1] = tested on: souris; test: Acute toxicity, intraperitoneal, mouse; conditions: I.P.
Procedure: (§1) Dans ces essais les produits à tester en solution dans de l'eau distillée (pH5) ont été administrés, par voie intrapéritonéale, sous un volume de 20 ml/kg chez la souris mâle, et, sous un volume de 5 ml/kg chez le rat mâle.
Le CRL 40 996 est moins toxique que les CRL 40 995 et CRL 40 827. En effet si la DL-0 (dose maximale non mortelle) des trois substances est supérieure ou égale à 64 mg/kg (I.P.; souris), la DL-60 du CRL 40 996 est de l'ordre de 128 mg/kg (I.P.; souris)et la DL-100 des CRL 40 995 et CRL 40 827 est inférieure ou égale à 128 mg/kg (I.P.; souris).

[2] = tested on: souris; test: Global behaviour and reactivities, mouse; conditions: for comportement et réactivités: doses of 2 and 0,5 mg/kg i.p.
Procedure: as §1
(§2) Des lots de 6 animaux sont observés avant, puis 0,25 h, 0,50 h, 1 h, 2 h, 3 h, et 24 h après administration des produits à étudier.

[3] = tested on: rat; test: Global behaviour and reactivities, rat
Procedure: as §1, §2

[4] = tested on: souris; test: Interaction with apomorphine; conditions: 0.5 h before apomorphine 16 mg/kg s.c.
Procedure: as §1
Des lots de 6 souris reçoivent chaque produit à tester une demi-heure avant l'injection sous-cutanée de 16 mg/kg d'apomorphine.

[5] = tested on: souris; test: Interaction with reserpine
Procedure: as §1
Quatre heures après l'injection intrapéritonéale de 2,5 mg/kg de réserpine, des lots de 6 souris reçoivent chaque produit à tester.

[6] = tested on: souris; test: Interaction with oxotremorine; conditions: for tremblements provoqués par l'oxotrémorine / effet hypothermisant de l'oxotrémorine: 0.5 h before oxotremorine 0,5 mg/kg i.p.
Procedure: as §1
Chaque produit à tester est administré à des lots de 6 souris une demi-heure avant l'injection intrapéritonéale de 0,5 mg/kg d'oxotrémorine.

[7] = tested on: souris; test: Spontaneous motility (actimeter); conditions: recorded for 0,5 h, 0.5 h after dosing
Procedure: as §1
Une demi-heure après avoir reçu les produits à tester, les souris (6 par dose, 12 témoins) sont placées en actimètre où leur motilité est enregistrée pendant 0,5 h.

[8] = tested on: souris; test: Behavioural despair (immobility in water); conditions: 0.5 h before immersion
Procedure: as §1
Une demi-heure après avoir reçu les produits à tester, des lots de 6 souris sont placés dans un bécher rempli d'eau sur une hauteur de 6 cm. On note la durée totale d'immobilité entre la 2ème et la 6ème minutes suivant l'immersion.

[9] = tested on: homme; test: Clinical use in depressive states; conditions: oral route, human
Procedure: La posologie préconisée consiste à administrer par jour 3 comprimés ou gélules renfermant chacun 3 à 4 mg de CRL 40 996.

[10] = 32 mg/kg i.p., 4 h after reserpine 2,5 mg/kg i.p.
[11] = doses of 0,5, 2 and 8 mg/kg i.p., 4 h after reserpine 2,5 mg/kg i.p.
[12] = peripheral cholinergic symptoms after oxotremorine 0,5 mg/kg i.p.
[13] = from the dose of 0,5 mg/kg i.p.
[14] = from the dose of 0.5 mg/kg i.p.

Question: Which “DL-0 (dose maximale non mortelle)” value [1] does the source give for `CC(C)(C)NCC(O)c1ccccc1F` (single isomer, unassigned) [CRL 40 995, chlorhydratede (+)-1-(2-fluorophényl)-2-tertio-butylamino-1-éthanol] here?
Answer: Its value is at least 64 mg/kg.

Question: And the DL-100 [1]?
Answer: Its DL-100 is at most 128 mg/kg.

Question: And the “comportement et réactivités” value [2]?
Answer: The value was “sans modifications sensibles par rapport aux animaux témoins”.

Question: What about the “respiration déprimée (duration)” value ([2]; doses of 32 and 8 mg/kg i.p.) of the same compound?
Answer: The value was 0,5 h.

Question: What about the “comportement et réactivités” value ([3]; doses of 16, 4, 1 and 0,5 mg/kg i.p.) of the same compound?
Answer: The value was “sans modifications sensibles par rapport aux animaux témoins”.

Question: And the “action hypothermisante de l'apomorphine” value ([4]; doses of 8 and 32 mg/kg i.p.)?
Answer: Its value is “s'oppose”.

Question: And the “comportement de verticalisation et stéréotypies” value ([4]; doses of 8 and 32 mg/kg i.p.)?
Answer: The value was “sans modifier”.

Question: What about the “antagonisme de l'hypothermie réserpinique (animals showing it)” value [5, 10] of the same compound?
Answer: Its value is 5 souris sur 6.

Question: What about the “perte du réflexe de redressement (et l'hypothermie qui en résulte)” value [5, 10] of the same compound?
Answer: Its value is 1 souris sur 6.

Question: What about the “hypothermie réserpinique” value [5, 11] of the same compound?
Answer: Its value is “s'oppose modérément”.

Question: And the ptôsis [5, 11]?
Answer: The ptôsis was “sans modifier”.

Question: And the “tremblements provoqués par l'oxotrémorine” value ([6]; 32 mg/kg i.p., worded as 'seems')?
Answer: Its value is “potentialiser”.

Question: What about the “effet hypothermisant de l'oxotrémorine” value ([6]; i.p., dose not stated) of the same compound?
Answer: The value was “n'est pas modifié”.

Question: And the “signes de stimulation cholinergique” value [6, 12]?
Answer: Its value is “laissent inchangés”.

Question: And the “activité motrice spontanée” value ([7]; doses of 8 and 32 mg/kg i.p.)?
Answer: The value was “diminue modérément”.

Question: What about the “durée de l'immobilité dite du "désespoir comportemental"” value ([8]; i.p., dose not stated) of the same compound?
Answer: Its value is “ne modifie pas”.

Question: With `CC(C)(C)NCC(O)c1ccccc1F` (racemic) [CRL 40 827, chlorhydratede ( + )-1-(2-fluorophényl)-2-tertiobutylamino-1-éthanol] as the compound, how does the “DL-0 (dose maximale non mortelle)” value [1] read?
Answer: Its value is at least 64 mg/kg.

Question: What about the DL-100 [1] of the same compound?
Answer: The DL-100 was at most 128 mg/kg.

Question: And the “effet hypothermisant de l'oxotrémorine” value ([6]; i.p., dose not stated)?
Answer: Its value is “an- tagonisé”.

Question: What about the “tremblements provoqués par l'oxotrémorine” value ([6]; i.p., dose not stated) of the same compound?
Answer: Its value is “ne sont pas modifiés”.

Question: And the “signes de stimulation cholinergique” value [6, 12]?
Answer: The value was “laissent inchangés”.

Question: What about the “activité motrice spontanée” value ([7]; 8 mg/kg i.p.) of the same compound?
Answer: Its value is “ne modifie pas”.

Question: And the “activité motrice spontanée” value ([7]; 32 mg/kg i.p.)?
Answer: Its value is “semble la diminuer modérément mais pas significativement”.

Question: With `CC(C)(C)NCC(O)c1ccccc1F` (single isomer, unassigned) [CRL 40 996, chlorhydratede (-)-1-(2-fluorophényl)-2-tertio-butylamino-1-éthanol] as the compound, how does the “DL-0 (dose maximale non mortelle)” value [1] read?
Answer: The value was at least 64 mg/kg.

Question: And the DL-60 [1]?
Answer: Its DL-60 is about 128 mg/kg.

Question: And the “diminution de la réactivité au toucher et du tonus musculaire (duration)” value ([2]; 8 mg/kg i.p.)?
Answer: Its value is 0,25 h.

Question: And the hypothermie ([2]; 8 mg/kg i.p.)?
Answer: The hypothermie was -1,8 °C.

Question: What about the “hypothermie (duration)” value ([2]; 8 mg/kg i.p.) of the same compound?
Answer: The value was 0,25 h.

Question: And the “sédation (duration)” value ([2]; 8 mg/kg i.p.)?
Answer: The value was 0,5 h.

Question: And the “diminution de la réactivité au toucher et du tonus musculaire (duration)” value ([2]; 32 mg/kg i.p.)?
Answer: Its value is 0,25 h.

Question: And the “disparition du "pinna reflex" (duration)” value ([2]; 32 mg/kg i.p.)?
Answer: Its value is 0,5 h.

Question: What about the hypothermie ([2]; 32 mg/kg i.p.) of the same compound?
Answer: Its hypothermie is -2,0 °C.

Question: What about the “sédation (duration)” value ([2]; 32 mg/kg i.p.) of the same compound?
Answer: Its value is 0,5 h.

Question: What about the “comportement et réactivités” value [2] of the same compound?
Answer: Its value is “sans modifications sensibles par rapport aux animaux témoins”.

Question: And the “sédation fugace (duration)” value ([3]; 4 mg/kg i.p.)?
Answer: The value was 0,25 h.

Question: And the “dyspnée (duration)” value ([3]; 16 mg/kg i.p.)?
Answer: The value was 1 h.

Question: And the “sédation (duration)” value ([3]; 16 mg/kg i.p.)?
Answer: Its value is 0,5 h.

Question: What about the “comportement et réactivités” value ([3]; doses of 1 and 0,25 mg/kg i.p.) of the same compound?
Answer: Its value is “sans modifications sensibles par rapport aux animaux témoins”.

Question: And the “comportement de verticalisation et stéréotypies” value [4, 13]?
Answer: The value was “sans modifier”.

Question: And the “hypothermie induite par l'apomorphine” value [4, 13]?
Answer: Its value is “antagonisme net”.

Question: What about the “latence de l'effet sur l'hypothermie réserpinique” value [5, 14] of the same compound?
Answer: The value was about 1 heure.

Question: What about the ptôsis [5, 14] of the same compound?
Answer: Its ptôsis is “sans modifier”.

Question: And the “hypothermie réserpinique” value ([5]; from the dose of 0.5 mg/kg i.p., effect does not clearly increase with dose)?
Answer: Its value is “combat modérément”.

Question: And the “effet hypothermisant de l'oxotrémorine” value ([6]; i.p., dose not stated)?
Answer: The value was “an- tagonisé”.

Question: What about the “tremblements provoqués par l'oxotrémorine” value ([6]; i.p., dose not stated) of the same compound?
Answer: Its value is “ne sont pas modifiés”.

Question: What about the défécation [6, 12] of the same compound?
Answer: Its défécation is “semble diminuer”.

Question: What about the salivation et lacrymation [6, 12] of the same compound?
Answer: Its salivation et lacrymation is “sans modifier”.

Question: And the “activité motrice spontanée” value ([7]; doses of 8 and 32 mg/kg i.p.)?
Answer: Its value is “diminution très importante”.

Question: What about the “durée d'immobilité” value ([8]; doses of 8 and 32 mg/kg i.p.) of the same compound?
Answer: The value was “diminue modérément”.

Question: And the “effet antidépresseur dans le traitement des états dépressifs” value [9]?
Answer: Its value is “bon agent antidépresseur”.
